Reference: patent US11179361B2, “Methods of quantifying N2-(1-carboxyethyl)-2′-deoxy-guanosine (CEdG) and synthesis of oligonucleotides containing CEdG” (CITY OF HOPE, priority 2008, dated 2021)

How the values were obtained:
[1] = Stability of CEdG to acid-catalyzed depurination and sidechain isomerization; details: 37° C.; for racemization of the sidechain stereocenter / interconversion of isomers: acidic hydrolysis, 1 M AcOH
Procedure: (§2) A 1.25 mM solution of CEdG-A, B or dG in 100 μL of 1M AcOH (pH 2.4) was stirred at 37° C. Aliquots (10 μl) were removed periodically and added to 40 μL of 2M TEAA (pH 7.0). HPLC product analyses were performed using an Alltech HS HyperPrep 100 BDS C18 8μ column. A gradient of 0 to 4% CH3CN over 5 min was followed by 6.5% CH3CN over 30 min. TEAA (pH 7) was kept constant at 50 mM. The ratio of free base (CEGuanine or Guanine) to intact nucleoside (CEdG or dG) was calculated by integration of the corresponding HPLC peaks (see inset in FIG. 4).
(§3) Purified stereoisomers of synthetic CEdG were subjected to acidic conditions (1 M AcOH at 37° C.) and the extent of released free base and diastereomer interconversion was monitored by HPLC as a function of time.

calf thymus DNA = experiment: Artifactual CEdG formation during DNA workup with carbonyl scavenger (calf thymus DNA)
Procedure: (§1) Calf thymus or tissue-extracted DNA (100 μg) was dissolved in 80 μL of autoclaved 18.2 MΩ H2O containing 20 μL of sodium acetate (100 mM, pH 5.5), 20 μL of 1×TBE, 1.5 μL of 50 mM ZnCl2, and 2.37 μL of a 100 mM AG or D-P stock solution. DNA was denatured at 95° C. for 5 min on a PCR heating block and then brought to 4° C. for 5 min. After equilibration to 45° C., 1.5 μL of 10 U/μL nuclease P1 was added. Alkaline phosphatase (4 μL of 8 U/μL), 1 U of bovine phosphodiesterase, and 14 μL of 100 mM CaCl2 were added after 1 hour, and the hydrolysis/dephosphorylation was continued for another 7 hours. DNA concentrations were determined by UV spectroscopy (1 OD260=50 μg/ml) and samples were stored at −80° C. prior to MS analyses. A 5 μL aliquot of digest was diluted to 200 μL and used for quantitation of 2′-deoxyguanosine by HPLC integration using a Beckman C18 reverse phase (25 cm×4.6 mm) column (Fullerton, Calif.). Separation was achieved isocratically using a mobile phase of 6% MeOH, 0.1% acetic acid in water.
Commercial grade calf thymus DNA was used as a model substrate for developing a protocol for CEdG quantitation in double-stranded DNA. […] Concentrations of AG from 0.5 to 50 mM were added prior to workup, and CEdG levels were measured in order to determine the optimal concentration required to achieve stable, reproducible levels. […]

[2] = test system: DNA extracted from breast tumor or adjacent tissue; experiment: Artifactual CEdG formation during DNA isolation from human breast tumor and adjacent tissue with carbonyl scavenger; details: 10 mM D-penicillamine in two aliquots during cell lysis/DNA isolation and hydrolysis/dephosphorylation
Procedure: Breast tumor and adjacent normal tissue were obtained from the frozen tumor bank of the City of Hope Pathology Core. A pea-sized section (˜100 mg) of tissue was minced and suspended in 1.2 mL of digestion buffer (100 mM NaCl, 10 mM Tris HCl, pH 8, 25 mM EDTA, pH 8, 0.5% SDS, 0.2 mg/mL proteinase K, 10 mM D-penicillamine) and incubated at 50° C. in a water bath for 12-18 h. DNA was then extracted using an equivalent volume of phenol/chloroform/isoamyl alcohol (25:24:1). The aqueous fraction was separated and 0.5 volumes of ammonium acetate and 2 volumes of 100% ethanol were added. The DNA was spooled, washed twice with 70% ethanol, pelleted, and resuspended in autoclaved 18.2 MΩ water. The enzymatic hydrolysis was carried out as described above.

urinary CEdG = experiment: Urinary CEdG measurement in type 1 (streptozoticin) diabetic rats given LR-90; format: in vivo, Sprague-Dawley rats
Procedure: All animal studies were carried out in compliance with the policies outlined in NIH Publication No. 85-23 “Guide for the Care and Use of Laboratory Animals.” Male Sprague-Dawley rats were rendered diabetic by injection of streptozoticin and maintained as previously described.^18 AGE inhibitor LR-90 was administered ad libitum at concentrations ranging from 2.5-50 mg/L. Rats were housed in metabolic cages and urine was collected over a 24 hour period with several drops of toluene to inhibit microbial growth. Urine samples were stored at −80° C. prior to LC-MS/MS analysis for CEdG. The data in FIG. 5 represent 3 replicates from n different animals: non-diabetic controls, n=6; non-diabetic treated with 50 mg/L LR-90, n=5; diabetic control, n=3. For diabetic rats treated with varying doses of LR-90: 2.5 mg/L, n=4; 10 mg/L, n=5; 25 mg/L, n=6; 50 mg/L, n=8.
CEdG was concentrated from urine by solid phase extraction. A 1 ml strata-X-C cartridge was pre-conditioned by the sequential addition of 1 ml MeOH/CH3CN (1:1) followed by 2×1 ml 2% H3PO4. Then ^15N5-CEdG was added as an internal standard (final concentration 5 μg/ml), the sample was acidified with 10 μl of 86% H3PO4, and finally 0.4 mL of urine was introduced via suction filtration. The cartridge was then washed with sequential additions of 1 ml 0.1% H3PO4 and 1 ml MeOH and then dried under vacuum for 1 minute. Finally, CEdG/^15N5-CEdG containing fractions were eluted from the cartridge with 1 mL 3% NH4OH in MeOH:CH3CN (2:8 v/v). The eluent was evaporated to dryness in a centrifugal concentrator and reconstituted with 200 μl 0.1% formic acid prior to LC-MS/MS injection.
CEdG quantification was performed using LC-MS/MS. Measurement of 8-oxo-dG was performed as previously described.^19 CEdG and ^15N5-CEdG (internal standard) were synthesized and purified. Measurements were performed using an Agilent 1100 Capillary LC system (Agilent Technologies, Palo Alto, Calif.) in line with a Micromass Quattro Ultima Triple Quadrupole Mass Spectrometer (Micromass, Beverly, Mass.) operating in positive-ion mode. […] The mass transitions monitored for CEdG and ^15N5-CEdG were 340.3→224.3 and 345.4→229.4 respectively. […] The lower limit of quantitation for CEdG, defined as a peak height of ≥5× baseline noise, was 0.1 ng/ml in the starting solution or 0.2 pg on column.
A diabetic animal model was used to examine the relationship between glycemic status and CEdG levels. […] 8-oxo-dG was also measured as an indicator of oxidative stress in normal and diabetic rats; however, excreted 8-oxo-dG in diabetic animals was not statistically different (P>0.05) from controls.

[3] = test system: CEdG levels from tissue-extracted DNA; experiment: CEdG in tissue-extracted DNA from organs of Zucker fatty rats; format: in vivo, Zucker rat; details: liver, pancreas and kidney, after LR-90 treatment
Procedure: as §1, with “Separation was achieved isocratically using a mobile phase of 6% MeOH, 0.1% acetic acid in water.” left out
The Zucker rat is a morbidly obese, hyperinsulinemic model for Type 2 diabetes resulting from homozygous knockout of the leptin receptor. In order to determine whether elevated circulating glucose in the Zucker rat correlates with increased tissue DNA glycation, CEdG levels from tissue-extracted DNA were measured in selected organs and compared to lean controls and to Zucker rats treated with the glycation inhibitor LR-90. […]

physchem = details: buffer, pH 2.4, half-life for depurination
Procedure: as §2, §3

In the case of CC(Nc1nc2c(ncn2[C@H]2C[C@H](O)[C@@H](CO)O2)c(=O)[nH]1)C(=O)O (single isomer, unassigned) [CEdG-A, N^2-(1-carboxyethyl)-2′-deoxyguanosine], the half-life at 1.25 mM ([1]; 1 M acetic acid solution, pH 2.4, half-life for depurination, 1 M AcOH (pH 2.4), HPLC) is reported as about 12.5 h and the “racemization of the sidechain stereocenter / interconversion of isomers” value [1] is reported as “no interconversion”.
In the case of CC(Nc1nc2c(ncn2[C@H]2C[C@H](O)[C@@H](CO)O2)c(=O)[nH]1)C(=O)O (single isomer, unassigned) [CEdG-B, N^2-(1-carboxyethyl)-2′-deoxyguanosine], the half-life for depurination ([1]; 1 M AcOH (pH 2.4), HPLC) is reported as about 8.33 h and the “racemization of the sidechain stereocenter / interconversion of isomers” value [1] is reported as “no interconversion”.
In the case of N=C(N)NN [AG, aminoguanidine], the “measured CEdG levels after mock proteolysis and hydrolysis with scavenger” value (calf thymus DNA; 10 mM AG in two aliquots prior to mock lysis and hydrolysis/dephosphorylation, 80-100 CEdG/10^6 guanines without scavenger) is reported as “drop in measured CEdG levels” and the “adduct levels after scavenger addition prior to sample processing” value (calf thymus DNA; 10 mM AG, hydrolysis/dephosphorylation only, 60-66 CEdG/10^6 dG without scavenger) is reported as 45-50 CEdG/10^6 guanines.
In the case of CC(C)(S)[C@@H](N)C(=O)O [D-penicillamine], the “artifactual CEdG formation” value [2] is reported as “artifactual formation was inhibited”.
In the case of CC(C)(Oc1ccc(NC(=O)Nc2ccc(Cc3ccc(NC(=O)Nc4ccc(OC(C)(C)C(=O)O)cc4)c(Cl)c3)cc2Cl)cc1)C(=O)O [LR-90], the “adduct level in urine” value (urinary CEdG; diabetic rats, LR-90 25 mg/L) is reported as “comparable to that of non-diabetic animals”, the “decrease in CEdG titer” value (urinary CEdG; diabetic rats, LR-90 ad libitum 2.5 mg/L, 24 hr urine) is reported as 2.3 fold and the “reduction in CEdG with increasing concentrations” value (urinary CEdG; diabetic rats, LR-90 ad libitum 2.5-50 mg/L, urine) is reported as “dose dependent reduction in CEdG”. For the same compound, the “effect on CEdG levels in normal controls” value (urinary CEdG; non-diabetic rats, LR-90 at doses up to 50 mg/L) was “no significant effect” and the “change of CEdG levels in tissue DNA” value [3] was “net lowering of CEdG levels”.
With Nc1nc2c(ncn2[C@H]2C[C@H](O)[C@@H](CO)O2)c(=O)[nH]1 [dG, 2′-deoxyguanosine] the half-life at 1.25 mM (physchem) was 7.33 h.
